Assay results: patent US8586638B2, “Parakeratosis inhibitor and skin preparation for external use” (priority 2003, dated 2013)
Where a SMILES comes first, the peptide text is derived from it.

Columns and labels:
[1] = tested on: skin roughness caused by oleic acid on the back of hairless mice; test: Inhibitory effect on skin roughness by the application of oleic acid (TEWL value); type: in vivo, hairless mice (HR-1); design: ΔTEWL: unit not given here; settings: for ΔTEWL: after 10 weight % oleic acid, 3 days, four mice per group, control 12.0
Protocol: To study the inhibitory effect on the skin roughness by the application of oleic acid by the glycine derivatives and the salts thereof as well as the aminosulfuric acid derivatives and the salts thereof in accordance with the invention 2, the […] (TEWL value) before and after the application was measured to compare the difference therebetween with the value of control (control solution) in order to determine the effect. The preparation of samples and the application procedure were in accordance with the embodiment 4. The TEWL value was measured by means of TEWA meter TM210 (Courage+Khazaka Inc.).
100 microliters of 10 weight % oleic acid (solvent: ethanol) was applied to the back of hairless mice (HR-1, four in each group). Thereafter, 100 microliters of sample solutions (glycine derivatives and the salts thereof as well as the aminosulfuric acid derivatives and the salts thereof) in accordance with the invention 2 were applied at each time. This procedure was repeated for 3 days. The day after the application, TEWL value of the back of mice was measured and the values were averaged. The larger delta-TEWL value indicates severer aggravation of skin roughness.

[2] = tested on: parakeratosis and skin roughness caused by oleic acid on the back of hairless mice; test: Parakeratosis inhibition effect test: oleic acid applied to the back of hairless mice, visual skin roughness and parakeratosis level; type: in vivo, hairless mice (HR-1); design: key to Evaluation Visual (mean of 4 mice), skin roughness: 0.0 = no roughness, 2.0 = control application; 0.25 steps; settings: for Evaluation Parakeratosis (mean of 4 mice): range 1.0 to 3.0, higher = severer, control 2.0; for Evaluation Visual (mean of 4 mice), skin roughness: score 0.0 no roughness, 2.0 control; for effect of inhibiting parakeratosis (conclusion from Table 4) / effect of inhibiting parakeratosis (conclusion from Table 1): hairless mice, oleic acid; for effect of inhibiting parakeratosis (conclusion from Table 4): fourth embodiment; for effect of inhibiting parakeratosis (conclusion from Table 1): first embodiment
Protocol: A 3 weight % water solution (including 30 weight % ethanol) was prepared as the evaluation specimen of the glycine derivatives in accordance with the invention 1. The pH was regulated to the range between 7.0 to 7.5, by using hydrochloric acid and sodium hydroxide. When the solubility was low, the solution was adjusted accordingly.
100 microliters of 10 weight % oleic acid (solvent: ethanol) was applied to the back of hairless mice (HR-1, Hoshino laboratory animals). Thereafter, 100 microliters of sample solution was applied (glycine derivatives in accordance with said invention 1) at each time. This procedure was repeated for 3 days. The day after the application, the skin condition of the backs was observed by using a CCD camera to evaluate the skin roughness (stratified ablation of the skin surface stratum corneum and red spots). The skin condition was evaluated visually, with scoring the skin condition of control application to 2.0 and the skin condition of no roughness to 0.0, in a 0.25 point step in response to the skin condition. At the same time, the skin surface stratum corneum of the back of hairless mice was peeled off by using a tape for staining the nucleus with haematoxylin to observe the degrees of parakeratosis (parakeratosis level) and evaluate in 0.25 step in the range from 1.0 to 3.0. The higher evaluation points indicates the larger number of parakeratotic corneocytes count, i.e., severer parakeratosis.
The samples to be evaluated of the glycine derivatives and the salts thereof as well as the aminosulfuric acid derivatives and the salts thereof in accordance with the invention 2 were prepared mainly 3 weight % solution (including 30 weight % ethanol, excluding Hydantoic acid and ACES which include 20 weight % ethanol). pH was regulated by using hydrochloric acid or sodium hydroxide to be 7.0 to 7.5. When the solubility was low, then the solution was prepared accordingly.
100 microliters of 10 weight % oleic acid (solvent: ethanol) was applied to the back of Hairless mice (HR-1, Hoshino laboratory animals) Thereafter, 100 microliters of sample solution (glycine derivatives in accordance with the invention 2) was applied thereon at each time. This procedure was repeated for 3 days. The day after the application, the skin condition of the backs was observed by using a CCD camera to evaluate the skin roughness (stratified ablation of the skin surface stratum corneum and red spots). The skin condition was evaluated visually, with scoring the skin condition of control application to 2.0 and the skin condition of no roughness to 0.0, in a 0.25 point step in response to the skin condition. At the same time, the skin surface stratum corneum of the back of hairless mice was peeled off by using a tape for staining the nucleus with haematoxylin to observe the degrees of parakeratosis and evaluate in 0.25 step in the range from 1.0 to 3.0. The higher evaluation points indicates the larger number of parakeratotic corneocytes count, i.e., severer parakeratosis.

[3] = sample 3 weight %, larger = severer roughness
[4] = Table 4, sample 3 weight % in aqueous 30 weight % ethanol (hydantoic acid: 20 weight % ethanol)
[5] = sample 3 weight % in aqueous 30 weight % ethanol, after 10 weight % oleic acid, 3 days
[6] = sample 1 weight % in aqueous 30 weight % ethanol, after 10 weight % oleic acid, 3 days

With `O=S(=O)(O)CCCCNC1CCCCC1` [CABS, 4-(cyclohexylamino)-1-butane sulfonic acid, reference compound] the ΔTEWL [1, 3] was 11.9, the “Evaluation Parakeratosis (mean of 4 mice)” value (shortened to “Evaluation Parakeratosis”) [2, 4] was 2.0 and the “Evaluation Visual (mean of 4 mice), skin roughness” value (from here on “Evaluation Visual (mean of 4 mice)”) [2, 4] was 1.9. For the same molecule, the “effect of inhibiting parakeratosis (conclusion from Table 4)” value [2] was “effect was not recognized”.

With `O=S(=O)(O)CCNC1CCCCC1` [CHES, 2-(N-cyclohexylamino)ethane sulfonic acid, reference compound] the ΔTEWL [1, 3] was 12.3, the “Evaluation Parakeratosis” value [2, 4] was 1.9 and the “Evaluation Visual (mean of 4 mice)” value [2, 4] was 1.8. For the same molecule, the “effect of inhibiting parakeratosis (conclusion from Table 4)” value [2] was “effect was not recognized”.

For `O=S(=O)(O)CCCN1CCOCC1` [MOPS, 3-(N-morpholino)propane sulfonic acid, reference compound], the ΔTEWL [1, 3] was 13.2, the “Evaluation Parakeratosis” value [2, 4] was 2.1 and the “Evaluation Visual (mean of 4 mice)” value [2, 4] was 1.9. The “effect of inhibiting parakeratosis (conclusion from Table 4)” value [2] was “effect was not recognized”.

In the case of `CN(C)CC(=O)O` [N,N-dimethylglycine, reference compound], the ΔTEWL [1, 3] is reported as 15.5, the “Evaluation Parakeratosis” value [2, 4] is reported as 2.3 and the “Evaluation Visual (mean of 4 mice)” value [2, 4] is reported as 2.1.

For `CC(=O)N[C@@H](CC(=O)O)C(=O)O` [N-acetyl-L-aspartic acid], the “effect of inhibiting parakeratosis (conclusion from Table 1)” value [2] was “have the effect of inhibiting parakeratosis”, the “Evaluation Parakeratosis” value [2, 5] was 1.5 and the “Evaluation Visual (mean of 4 mice)” value [2, 5] was 1.4.

With `CC(=O)NCC(=O)O` [N-acetylglycine, reference compound] the ΔTEWL [1, 3] was 14.7, the “Evaluation Parakeratosis” value [2, 4] was 2.0 and the “Evaluation Visual (mean of 4 mice)” value [2, 4] was 1.9.

In the case of `O=C(O)CC[C@H](NS(=O)(=O)c1ccccc1)C(=O)O` [N-benzenesulfonyl-L-glutamic acid, N-benzene-sulfonyl-L-glutamic acid], the “effect of inhibiting parakeratosis (conclusion from Table 1)” value [2] is reported as “have the effect of inhibiting parakeratosis”, the “Evaluation Parakeratosis” value [2, 5] is reported as 1.6 and the “Evaluation Visual (mean of 4 mice)” value [2, 5] is reported as 1.6.

With `O=C(O)CC[C@H](NC(=O)c1ccccc1)C(=O)O` [N-benzoyl-L-glutamic acid] the “effect of inhibiting parakeratosis (conclusion from Table 1)” value [2] was “have the effect of inhibiting parakeratosis”, the “Evaluation Parakeratosis” value [2, 5] was 1.6 and the “Evaluation Visual (mean of 4 mice)” value [2, 5] was 1.7.

With `O=S(=O)(O)CCCNC(CO)(CO)CO` [TAPS, N-tris(hydroxymethyl)methyl-3-aminopropane sulfonic acid, reference compound] the ΔTEWL [1, 3] was 12.0, the “Evaluation Parakeratosis” value [2, 4] was 2.1 and the “Evaluation Visual (mean of 4 mice)” value [2, 4] was 2.0. The “effect of inhibiting parakeratosis (conclusion from Table 4)” value [2] was “effect was not recognized”.

With `CCOC(=O)CCN.Cl` [beta-alanine ethyl ester HCL, beta-alanine ethyl-ester hydrochloride] the “effect of inhibiting parakeratosis (conclusion from Table 1)” value [2] was “have the effect of inhibiting parakeratosis”, the “Evaluation Parakeratosis” value [2, 5] was 1.2 and the “Evaluation Visual (mean of 4 mice)” value [2, 5] was 1.0.

In the case of `C[N+](C)(C)CC(=O)O` [betaine, reference compound], the ΔTEWL [1, 3] is reported as 10.6, the “Evaluation Parakeratosis” value [2, 4] is reported as 1.8 and the “Evaluation Visual (mean of 4 mice)” value [2, 4] is reported as 1.8.

`O=C(O)CN(CCO)CCO` [bicine, reference compound] was tested, and the ΔTEWL [1, 3] was 12.0, the “Evaluation Parakeratosis” value [2, 4] was 2.0 and the “Evaluation Visual (mean of 4 mice)” value [2, 4] was 1.9.

With `CCOC(=O)CN1CCCCC1` [ethyl-1-piperidine acetate, reference compound] the ΔTEWL [1, 3] was 10.7, the “Evaluation Parakeratosis” value [2, 4] was 1.9 and the “Evaluation Visual (mean of 4 mice)” value [2, 4] was 1.8.

In the case of `NCC(N)=O` [glycine amide, reference compound], the “Evaluation Parakeratosis” value [2, 5] is reported as 2.1 and the “Evaluation Visual (mean of 4 mice)” value [2, 5] is reported as 1.9.

`Cl.NCC(=O)OCc1ccccc1` [glycine benzyl ester HCL, glycine benzyl ester hydrochloride] was tested, and the “effect of inhibiting parakeratosis (conclusion from Table 1)” value [2] was “have the effect of inhibiting parakeratosis”, the “Evaluation Parakeratosis” value [2, 5] was 1.2 and the “Evaluation Visual (mean of 4 mice)” value [2, 5] was 1.3.

For `CCOC(=O)CN.Cl` [glycine ethyl ester HCL, glycine ethyl ester hydrochloride], the “effect of inhibiting parakeratosis (conclusion from Table 1)” value [2] was “have the effect of inhibiting parakeratosis”, the “Evaluation Parakeratosis” value [2, 5] was 1.1 and the “Evaluation Visual (mean of 4 mice)” value [2, 5] was 1.2.

`CCCCOC(=O)CN.Cl` [glycine n-butyl ester HCL, glycine n-butyl ester hydrochloride] was tested, and the “effect of inhibiting parakeratosis (conclusion from Table 1)” value [2] was “have the effect of inhibiting parakeratosis”, the “Evaluation Parakeratosis” value [2, 5] was 1.5 and the “Evaluation Visual (mean of 4 mice)” value [2, 5] was 1.6.

With `CCCOC(=O)CN.Cl` [glycine n-propyl ester HCL, glycine n-propyl ester hydrochloride] the “effect of inhibiting parakeratosis (conclusion from Table 1)” value [2] was “have the effect of inhibiting parakeratosis”, the “Evaluation Parakeratosis” value [2, 5] was 1.4 and the “Evaluation Visual (mean of 4 mice)” value [2, 5] was 1.4.

With `CC(C)(C)OC(=O)CN.Cl` [glycine t-butyl ester HCL, glycine t-butyl ester hydrochloride] the “effect of inhibiting parakeratosis (conclusion from Table 1)” value [2] was “have the effect of inhibiting parakeratosis”, the “Evaluation Parakeratosis” value [2, 5] was 1.5 and the “Evaluation Visual (mean of 4 mice)” value [2, 5] was 1.6.

With `NCC(=O)NCC(=O)NCC(=O)O` [glycyl-glycylglycine, reference compound] (H-Gly-Gly-Gly-OH) the “Evaluation Parakeratosis” value [2, 6] was 2.0 and the “Evaluation Visual (mean of 4 mice)” value [2, 6] was 1.9.

In the case of `N=C(N)N1CCC(C(=O)O)CC1` [guanidinoisonipecotinic acid, reference compound], the “Evaluation Parakeratosis” value [2, 5] is reported as 2.2 and the “Evaluation Visual (mean of 4 mice)” value [2, 5] is reported as 2.0.

In the case of `O=C(O)C1CCNCC1` [isonipecotinic acid, isonipecotic acid], the “effect of inhibiting parakeratosis (conclusion from Table 1)” value [2] is reported as “have the effect of inhibiting parakeratosis”, the “Evaluation Parakeratosis” value [2, 5] is reported as 1.5 and the “Evaluation Visual (mean of 4 mice)” value [2, 5] is reported as 1.6.

With `O=C(O)CNC(=O)c1cccnc1` [nicotinoylglycine, N-nicotinoylglycine] the “decrease of delta-TEWL value as compared to the control solution (conclusion from Table 6)” value ([1]; hairless mice, oleic acid, seventh embodiment) was “significant decrease of delta-TEWL value” and the ΔTEWL ([1]; sample 0.1 weight %) was 7.4.
